In patent publication US9695155B2, “Herbicidal substituted pyrimidinyloxy benzene compounds” (E. I. DU PONT DE NEMOURS AND COMPANY, priority 2013, dated 2017):

Tests used:
pigweed [1] = assay: Test A postemergence; assay type: in vivo, Amaranthus retroflexus; conditions: 1000 g ai/ha, 0 to 100 scale, 0 no effect, 100 complete control
Summary of the method: (§1)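 Greenhouse pot test, loam/sand soil. Formulation: non-phytotoxic solvent mix plus surfactant. Pre: directed spray onto soil after sowing. Post: plants at 1–2 leaf, 2–10 cm. Rated visually vs untreated controls at ~10 d, 0 (no effect) to 100 (complete control).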

morningglory [2] = assay: Test C postemergence; assay type: in vivo, Ipomoea coccinea; conditions: for Plant response rating, Morningglory: scale 0 to 100 (0 no effect, 100 complete control)
Summary of the method: (§2)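 Greenhouse herbicide screen. Pre: seeded loam/sand, sprayed at planting. Post: 1–4 leaf plants (2–18 cm) in peat-based mix. Formulation: solvent mixture + surfactant, non-phytotoxic. Readout: visual % control vs untreated, 13–15 d; dash = not tested.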

kochia = assay: Test C postemergence; assay type: in vivo, Kochia scoparia; conditions: for Plant response rating, Kochia: scale 0 to 100 (0 no effect, 100 complete control)
Summary of the method: as §2

large (Lg) crabgrass = assay: Test A postemergence; assay type: in vivo, Digitaria sanguinalis; conditions: 1000 g ai/ha, 0 to 100 scale, 0 no effect, 100 complete control
Summary of the method: as §1

pigweed [3] = assay: Test C postemergence; assay type: in vivo, Amaranthus retroflexus; conditions: for Plant response rating, Pigweed: scale 0 to 100 (0 no effect, 100 complete control)
Summary of the method: as §2

wheat, winter = assay: Test C preemergence; assay type: in vivo, Triticum aestivum; conditions: for Wheat plant response rating: preemergence
Summary of the method: as §2

lambsquarters = assay: Test C preemergence; assay type: in vivo, Chenopodium album; conditions: for Lambsquarters plant response rating: preemergence
Summary of the method: as §2

morningglory [4] = assay: Test A preemergence; assay type: in vivo, Ipomoea spp.; conditions: 1000 g ai/ha, 0 to 100 scale, 0 no effect, 100 complete control, approx. 10 days
Summary of the method: as §1

giant foxtail = assay: Test A preemergence; assay type: in vivo, Setaria faberii; conditions: 1000 g ai/ha, 0 to 100 scale, 0 no effect, 100 complete control, approx. 10 days
Summary of the method: as §1

barnyardgrass [5] = assay: Test C preemergence; assay type: in vivo, Echinochloa crus-galli; conditions: for Barnyardgrass plant response rating: preemergence
Summary of the method: as §2

Italian ryegrass = assay: Test C postemergence; assay type: in vivo, Lolium multiflorum; conditions: for Plant response rating, Ryegrass, Italian: scale 0 to 100 (0 no effect, 100 complete control)
Summary of the method: as §2

corn = assay: Test A preemergence; assay type: in vivo, Zea mays; conditions: 1000 g ai/ha, 0 to 100 scale, 0 no effect, 100 complete control
Summary of the method: as §1

barnyardgrass [6] = assay: Test B flooded paddy test; assay type: in vivo, Echinochloa crus-galli; conditions: Flood, 250 g ai/ha; 0 to 100 scale where 0 is no effect and 100 is complete control
Summary of the method: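 Visual ratings on a 0 to 100 scale, where 100 means complete control, compared treated plants with controls after 13 to 15 days in a greenhouse. Treatment went into paddy water 3 cm deep over the soil, applied to plants at the 2-leaf stage.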

velvetleaf [7] = assay: Test A preemergence; assay type: in vivo, Abutilon theophrasti; conditions: 1000 g ai/ha, 0 to 100 scale, 0 no effect, 100 complete control, approx. 10 days
Summary of the method: as §1

wheat = assay: Test A postemergence; assay type: in vivo, Triticum aestivum; conditions: 1000 g ai/ha, 0 to 100 scale, 0 no effect, 100 complete control
Summary of the method: as §1

velvetleaf [8] = assay: Test A postemergence; assay type: in vivo, Abutilon theophrasti; conditions: 1000 g ai/ha, 0 to 100 scale, 0 no effect, 100 complete control
Summary of the method: as §1

[9] = 16 g ai/ha, postemergence, 0 is no effect, 100 is complete control
[10] = 125 g ai/ha, postemergence, visual rating
[11] = 16 g ai/ha, scale 0 to 100 (0 no effect, 100 complete control)
[12] = 62 g ai/ha, scale 0 (no effect) to 100 (complete control)
[13] = 125 g ai/ha, scale 0 (no effect) to 100 (complete control)
[14] = Preemergence, 31 g ai/ha, scale 0 to 100, 0 no effect, 100 complete control

`N#Cc1cn(-c2c(Br)cccc2Oc2ncc(Cl)cn2)nn1` [Compound 116] was tested, and the “Plant response rating, Pigweed” value (pigweed [1]) was 100, the “Plant response rating (0 to 100), Morningglory” value (morningglory [2]; [9]) was 50 and the “Plant response rating, Morningglory” value (morningglory [2]; [10]) was 80. The “Plant response rating, Morningglory” value (morningglory [2]; Postemergence, 62 g ai/ha) was 60, the “Plant response rating (0 to 100), Kochia” value (kochia; [9]) was 70 and the “Plant response rating, Kochia” value (kochia; [10]) was 95. The “Plant response rating, Kochia” value (kochia; Postemergence, 62 g ai/ha) was 90, the “Plant response rating, Crabgrass, Large” value (large (Lg) crabgrass) was 100 and the “Plant response rating (0 to 100), Pigweed” value (pigweed [3]; [9]) was 80. For the same compound, the “Plant response rating, Pigweed” value (pigweed [3]; [10]) was 95, the “Plant response rating, Pigweed” value (pigweed [3]; Postemergence, 62 g ai/ha) was 90 and the “Wheat plant response rating” value (wheat, winter; [11]) was 0. The “Wheat plant response rating” value (wheat, winter; [12]) was 0, the “Wheat plant response rating” value (wheat, winter; [13]) was 5 and the “Plant response rating, Wheat” value (wheat, winter; [14]) was 0. The “Lambsquarters plant response rating” value (lambsquarters; [11]) was 10, the “Lambsquarters plant response rating” value (lambsquarters; [12]) was 85 and the “Lambsquarters plant response rating” value (lambsquarters; [13]) was 100. For the same compound, the “Plant response rating, Lambsquarters” value (lambsquarters; [14]) was 95, the “Morningglory plant response rating” value (morningglory [4]) was 100 and the “Foxtail, Giant plant response rating” value (giant foxtail) was 100. For the same compound, the “Barnyardgrass plant response rating” value (barnyardgrass [5]; [11]) was 0, the “Barnyardgrass plant response rating” value (barnyardgrass [5]; [12]) was 45 and the “Barnyardgrass plant response rating” value (barnyardgrass [5]; [13]) was 70. The “Plant response rating, Barnyardgrass” value (barnyardgrass [5]; [14]) was 25, the “Plant response rating (0 to 100), Ryegrass, Italian” value (Italian ryegrass; [9]) was 5 and the “Plant response rating, Ryegrass, Italian” value (Italian ryegrass; [10]) was 5. The “Plant response rating, Ryegrass, Italian” value (Italian ryegrass; Postemergence, 62 g ai/ha) was 5, the “Plant response rating, Corn” value (corn) was 30 and the “Plant response rating, Barnyardgrass” value (barnyardgrass [6]) was 0. For the same compound, the “Velvetleaf plant response rating” value (velvetleaf [7]) was 100, the “Plant response rating, Wheat” value (wheat) was 50 and the “Plant response rating, Velvetleaf” value (velvetleaf [8]) was 100.
